In patent publication US20220257546A1, “KETONE BODIES ENCLOSED IN MICROBEADS” (Ketoswiss AG, priority 2019, published 2022):

Tests used:
[1] = in vivo
Description: (§1) The participants went to the visits A, B and C in a randomized order.
(§2) The experimental setup allowed to directly determine the physiological effects of ingesting βHB enclosed in microbeads compared to standard non-enclosed βHB. To distinguish the effects of βHB from effects of the enclosing material, i.e. the pea protein, participants have also ingested empty microbeads on one trial day.

[2] = βHB blood plasma concentration after 18 g βHB in microbeads or free (Example 3 cross-over trial); format: in vivo, human; conditions: n=10
Description: A dose of βHB contained in microbeads was 20 g of microbeads containing a mix of 50% R-3-hydroxybutyrate mineral salts (Na/Ca/K/Mg Blend 1:1:1:2) and 50% R-3-hydroxybutyric acid (βHB formulation). In particular, said βHB formulation was enriched in pockets dispersed throughout a polymerized yellow pea protein matrix of the microbead particles and constituted approximately 89 to 90% of the weight of the microbead. Thus, the βHB formulation comprised in said dose was about 18 g, in particular about 17.8 g.
The dose of non-enclosed (free) βHB was also about 18 g, in particular about 17.8 g, and the dose of empty microbeads was about 2 g, in particular about 2.2 g. Thus, the free βHB and empty microbeads were direct controls of the composition comprising βHB contained in microbeads.
For administration, one dose was suspended in 250 ml of lemon-flavored non-caloric water.
Participants arrived at the laboratory between 7.30 and 9.00 after an overnight fast, and provided a urine sample for hydration assessment (PEN Refractometer, Atago Instruments). Next, a fasting blood sample was taken via a cannula inserted into a superficial forearm vein for serial blood sampling. After providing a “fasting” blood sample, participants ingested a 250 mL lemon flavored non-caloric water drink wherein the 18 g dose of a microbead comprising the βHB formulation was suspended. After supplementation, baseline determinations tests were repeated for comparison between the pre- and post-supplementation periods. Every 30 min for three hours after ingestion, a blood sample was taken. After 3 hours, a blood sample was taken at 1-hour intervals. After 8 hours, a blood sample was taken at 2-hour intervals. Participants remained in the lab at quiet rest throughout this time period and were permitted to use entertainment headsets and the digital library and were allowed make short walks outside. […] The blood samples were, at least for the determination of AcAc levels, directly analyzed within 2 hours (or otherwise stored at −80° C. before analysis). […]

[3] = Glucose blood plasma levels, Example 3 trial; format: in vivo, human; conditions: about 18 g βHB formulation; snack provided at 6 h; n=10
Experimental: Participants arrived at the laboratory between 7.30 and 9.00 after an overnight fast, and provided a urine sample for hydration assessment (PEN Refractometer, Atago Instruments). Next, a fasting blood sample was taken via a cannula inserted into a superficial forearm vein for serial blood sampling. After providing a “fasting” blood sample, participants ingested a 250 mL lemon flavored non-caloric water drink wherein the 18 g dose of a microbead comprising the βHB formulation was suspended. After supplementation, baseline determinations tests were repeated for comparison between the pre- and post-supplementation periods. Every 30 min for three hours after ingestion, a blood sample was taken. After 3 hours, a blood sample was taken at 1-hour intervals. After 8 hours, a blood sample was taken at 2-hour intervals. Participants remained in the lab at quiet rest throughout this time period and were permitted to use entertainment headsets and the digital library and were allowed make short walks outside. Participants were offered some small snack 6 hours after consumption of the prototype drink which they could choose from low caloric yoghurts, muesli bars and low caloric fruit juices. […] The blood samples were, at least for the determination of AcAc levels, directly analyzed within 2 hours (or otherwise stored at −80° C. before analysis). […]

[4] = Tolerability of βHB, Example 3 trial; conditions: about 18 g dose
Description: as §1, §2

[5] = about 18 g βHB formulation oral

Compound: C[C@@H](O)CC(=O)O [free βHB, R-3-hydroxybutyric acid]
- tolerability of the dose [1]: poorly tolerated
- average plasma βHB concentration at peak ([2]; about 18 g βHB formulation oral in 250 ml lemon-flavored water, first measurement time-point): 1.5 mM
- time within which plasma βHB concentration dropped to baseline levels [2, 5]: ≤ 2 h
- time-point of peak average plasma βHB concentration [2, 5]: 0.5 h
- blood glucose levels upon ingestion [3]: not altered for at least 4 hours
- participants expressing mild nausea ([4]; of 10 participants): 4 participants
- participants expressing severe discomfort and sickness ([4]; of 10 participants): 3 participants
- participants reporting gastrointestinal distress (stomach cramping, upset, nausea, bloating, diarrhea) ([4]; within the first hour upon ingestion): 7 of 10 participants
